According to ChEMBL document CHEMBL3608206, “Phenolic 4-hydroxy and 3,5-dihydroxy derivatives of 3-phenoxyquinoxalin-2(1H)-one as potent aldose reductase inhibitors with antioxidant activity” (Bioorg Med Chem Lett, 2015):

Columns and labels:
[1] = biological target: Aldo-keto reductase family 1 member B1 (Rattus norvegicus, UniProt P07943); assay: Inhibition of Wistar rat ALR2 using D,L-glyceraldehyde as substrate assessed as oxidation of NADPH preincubated for 10 mins followed by substrate addition measured for 4 mins by spectrophotometric analysis
[2] = Antioxidant activity assessed as DPPH radical scavenging activity at 100 uM after 240 mins by spectrophotometric analysis relative to control; format: physicochemical; conditions: 4 h
[3] = Antioxidant activity assessed as DPPH radical scavenging activity at 50 uM after 240 mins by spectrophotometric analysis relative to control; format: physicochemical; conditions: 4 h
[4] = test system: Brain; assay: Antioxidant activity in rat brain assessed as inhibition of MDA production at 10 uM by TBARS assay relative to control; format: functional
[5] = test system: Brain; assay: Antioxidant activity in rat brain assessed as inhibition of MDA production at 100 uM by TBARS assay relative to control; format: functional
[6] = biological target: Aldo-keto reductase family 1 member B1 (Rattus norvegicus) (UniProt P07943); assay: Inhibition of Wistar rat ALR2 using D,L-glyceraldehyde as substrate assessed as oxidation of NADPH at 10 uM preincubated for 10 mins followed by substrate addition measured for 4 mins by spectrophotometric analysis relative to control

| SMILES | IC50 [1] | Activity [2] | Activity [3] | inhibition at 10 µM [4] | inhibition at 100 µM [5] | inhibition [6] |
| --- | --- | --- | --- | --- | --- | --- |
| O=C(O)Cn1c(=O)c(Oc2cc(O)cc(O)c2)nc2cc(Cl)ccc21 | 982 nM | 56.5% | 34.5% | 8.1% | 24.5% | – |
| O=C(O)Cn1c(=O)c(Oc2cc(O)cc(O)c2)nc2ccccc21 | 940 nM | 67.4% | 46.5% | 5.7% | 34.5% | – |
| O=C(O)Cn1c(=O)c(Oc2ccc(O)cc2)nc2ccc(Cl)cc21 | 179 nM | 84.8% | 47.3% | 10.1% | 49.4% | – |
| O=C(O)Cn1c(=O)c(Oc2cc(O)cc(O)c2)nc2ccc(F)cc21 | – | 38.2% | 29.3% | 9.3% | 20.3% | 34% |
| Cc1c(C)c2c(c(C)c1O)CCC(C)(C(=O)O)O2 (stereo not drawn) [TROLOX] | – | 96.7% | 93.3% | 90.1% | 71.3% | – |
| O=C(O)Cn1c(=O)c(Oc2ccc(O)cc2)nc2ccccc21 | 374 nM | 21.3% | – | – | 12.3% | – |
| O=C(O)Cn1c(=O)c(Oc2ccc(O)cc2)nc2cc(F)ccc21 | 19.6 nM | 23.7% | – | – | 14.3% | – |
| O=C(O)Cn1c(=O)c(Oc2cc(O)cc(O)c2)nc2cc(F)ccc21 | 130 nM | 25.4% | – | – | 15.5% | – |
| O=C(O)Cn1c(=O)c(Oc2cc(O)cc(O)c2)nc2ccc(Cl)cc21 | 566 nM | 91.3% | 83.7% | 26.6% | 55.3% | – |
